These results are taken from patent publication US20090181934A1, “Organic Compounds” (Novartis AG, priority 2007, published 2009).

This assay deals with adenosine A2A receptor (Homo sapiens, UniProt P29274). Put plainly: adenosine A2A receptor agonist assay (method of Murphree et al). In kind it is binding. Particulars: method of L. J. Murphree et al, Molecular Pharmacology 61, 455-462 (2002). The source says:
The compounds of (A) activate the adenosine […] receptor, i.e. they act as A2A receptor agonists.

Molecules are shown by their SMILES. Counter-ions that a name gives are not always drawn.

Sequence of adenosine A2A receptor (P29274 whole entry): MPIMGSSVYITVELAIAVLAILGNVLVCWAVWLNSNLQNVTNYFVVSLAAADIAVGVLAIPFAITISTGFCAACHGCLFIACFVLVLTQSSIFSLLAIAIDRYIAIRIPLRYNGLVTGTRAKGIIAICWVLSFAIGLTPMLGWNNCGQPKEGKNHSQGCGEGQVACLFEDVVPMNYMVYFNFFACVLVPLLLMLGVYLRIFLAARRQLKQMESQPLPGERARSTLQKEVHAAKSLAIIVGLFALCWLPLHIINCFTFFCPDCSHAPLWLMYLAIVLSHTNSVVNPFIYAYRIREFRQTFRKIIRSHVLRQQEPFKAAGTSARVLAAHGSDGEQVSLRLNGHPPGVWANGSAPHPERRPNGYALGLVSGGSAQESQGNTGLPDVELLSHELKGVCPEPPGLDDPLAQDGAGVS

`COC(=O)N[C@H]1C[C@@H](n2cnc3c(NCC(c4ccccc4)c4ccccc4)nc(N4CC[C@@H](NC(=O)Nc5cccnc5)C4)nc32)[C@H](O)[C@@H]1O` [Example 1, ((1S,2R,3S,4R)-4-{6-(2,2-Diphenyl-ethylamino)-2-[(R)-3-(3-pyridin-3-yl-ureido)-pyrrolidin-1-yl]-purin-9-yl}-2,3-dihydroxy-cyclopentyl)-carbamic acid methyl ester hydrochloride] displayed an inhibitory constant (Ki) of 4 nM.

Broadly, the Ki is a measure of affinity in units of concentration, obtained from inhibition or displacement. Read a low Ki as a stronger hold on the target.
